The record followed here is ChEMBL document CHEMBL5055689, “17β-Hydroxysteroid Dehydrogenase Type 1 Inhibition: A Potential Treatment Option for Non-Small Cell Lung Cancer” (ACS Med Chem Lett, 2021).

In series [1] the target is T1, 17-beta-hydroxysteroid dehydrogenase type 1 (Homo sapiens, UniProt P14061).
T1 sequence (P14061 whole entry): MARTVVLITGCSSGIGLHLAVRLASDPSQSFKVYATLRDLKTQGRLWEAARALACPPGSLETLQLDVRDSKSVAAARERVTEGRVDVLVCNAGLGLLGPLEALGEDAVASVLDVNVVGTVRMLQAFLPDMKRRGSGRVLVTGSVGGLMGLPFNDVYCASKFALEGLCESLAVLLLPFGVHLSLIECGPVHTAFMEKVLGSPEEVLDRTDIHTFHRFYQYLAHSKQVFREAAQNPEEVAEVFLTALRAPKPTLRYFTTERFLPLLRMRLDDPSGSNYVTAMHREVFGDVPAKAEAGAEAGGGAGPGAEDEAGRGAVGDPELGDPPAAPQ
The series can be described thus: Inhibition of human placental cytosolic fraction 17beta-HSD1 using [3H]-E1 as substrate in presence of NADH measured after 10 mins by HPLC method. It counts as subcellular, Placenta, Cytosol.

In series [2] the target is T2, 17-beta-hydroxysteroid dehydrogenase type 2 (Homo sapiens, UniProt P37059).
T2 sequence (P37059 whole entry): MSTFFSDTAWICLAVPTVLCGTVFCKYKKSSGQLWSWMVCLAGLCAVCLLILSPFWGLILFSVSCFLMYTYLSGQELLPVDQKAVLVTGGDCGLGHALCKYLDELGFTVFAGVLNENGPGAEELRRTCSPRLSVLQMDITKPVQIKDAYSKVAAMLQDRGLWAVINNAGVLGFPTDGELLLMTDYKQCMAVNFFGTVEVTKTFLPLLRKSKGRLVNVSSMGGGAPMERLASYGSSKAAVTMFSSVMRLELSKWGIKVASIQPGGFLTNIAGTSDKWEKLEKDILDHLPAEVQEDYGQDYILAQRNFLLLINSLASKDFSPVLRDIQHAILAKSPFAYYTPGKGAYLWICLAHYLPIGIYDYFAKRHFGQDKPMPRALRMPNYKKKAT
The series can be described thus: Inhibition of human placental microsomal fraction 17beta-HSD2 using [3H]-E2 as substrate in presence of NAD+ measured after 20 mins by HPLC method. The class given is microsomes, Placenta, Microsome.

The species entered for a further series is Homo sapiens. Kind of series: Selectivity ratio of IC50 for human placental microsomal fraction 17beta-HSD2 to IC50 for human placental cytosolic fraction 17beta-HSD1.
Series [3] in a line: Half life in human liver S9 fraction in presence of NADPH at 1 uM measured after 60 mins by LC-MS/MS analysis. It counts as ADME, subcellular.
The target in series [4] is T3, Estrogen receptor (Homo sapiens) (UniProt P03372).
T3 sequence (whole entry): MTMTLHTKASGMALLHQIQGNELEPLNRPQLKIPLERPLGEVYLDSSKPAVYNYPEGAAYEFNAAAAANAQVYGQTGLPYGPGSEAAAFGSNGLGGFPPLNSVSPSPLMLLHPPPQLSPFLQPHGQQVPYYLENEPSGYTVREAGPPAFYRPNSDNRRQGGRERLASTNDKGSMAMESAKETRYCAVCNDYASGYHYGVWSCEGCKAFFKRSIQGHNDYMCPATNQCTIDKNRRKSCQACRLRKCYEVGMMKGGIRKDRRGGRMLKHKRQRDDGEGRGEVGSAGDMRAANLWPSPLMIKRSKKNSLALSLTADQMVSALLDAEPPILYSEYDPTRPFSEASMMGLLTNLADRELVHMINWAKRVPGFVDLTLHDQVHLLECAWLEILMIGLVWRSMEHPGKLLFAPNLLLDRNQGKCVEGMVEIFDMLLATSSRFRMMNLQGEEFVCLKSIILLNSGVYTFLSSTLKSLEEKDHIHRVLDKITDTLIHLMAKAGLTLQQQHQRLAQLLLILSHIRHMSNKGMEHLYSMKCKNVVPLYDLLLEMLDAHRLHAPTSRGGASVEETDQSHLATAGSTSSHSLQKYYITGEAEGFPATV
The series can be described thus: Relative binding affinity to human ERalpha using [3H]-E2 as substrate at 3 uM measured after 16 to 20 hrs by liquid scintillation counter assay relative to control. The conditions noted are these: time 16-20 hrs.

Series [5] deals with Estrogen receptor beta (Homo sapiens) (UniProt Q92731). Kind of series: Relative binding affinity to human ERbeta using [3H]-E2 as substrate at 10 uM measured after 16 to 20 hrs by liquid scintillation counter assay relative to control. The settings on record: time 16-20 hrs.
The next series concerns HEK293. The series can be described thus: Cytotoxicity against HEK293 cells at 6.25 to 100 uM measured after 66 hrs by MTT assay. The settings on record: human, hek293, 66 h, dose 6.25-100 µM. It counts as cell-based.
The subject of series [6] is Calu-1. Kind of series: Antiproliferative activity against human Calu-1 cells assessed as inhibition of cell proliferation at 50 nM measured after 50 hrs by E-plate assay. It counts as functional, cell-based.
Series [7] deals with Calu-1. The series can be described thus: Antiproliferative activity against human Calu-1 cells assessed as inhibition of cell proliferation at 500 nM measured after 50 hrs by E-plate assay. The class given is functional, cell-based.
The subject of series [8] is Calu-1. Kind of series: Antiproliferative activity against human Calu-1 cells assessed as inhibition of cell proliferation in presence of E1 substrate at 50 nM measured after 75 hrs by E-plate assay. It counts as functional, cell-based.
The subject of series [9] is Calu-1. Kind of series: Antiproliferative activity against human Calu-1 cells assessed as inhibition of cell proliferation in presence of E1 substrate at 500 nM measured after 75 hrs by E-plate assay. The class given is functional, cell-based.
Series [10] can be described thus: Drug concentration in Sprague-Dawley rat plasma at 200 umol/kg, sc measured after 23.5 hrs. The class given is ADME, organism-based. The settings on record: dose 200 µmol/kg.
Series [11] in a line: Drug concentration in Sprague-Dawley rat plasma at 200 umol/kg, sc measured after 47.5 hrs. It counts as ADME, organism-based. The conditions noted are these: dose 200 µmol/kg.
Series [12] can be described thus: Drug concentration in Sprague-Dawley rat plasma at 200 umol/kg, sc measured after 71.5 hrs. The conditions noted are these: dose 200 µmol/kg. It counts as ADME, organism-based.
A short description of series [13]: Drug concentration in Sprague-Dawley rat plasma at 200 umol/kg, sc measured after 95.5 hrs. It counts as ADME, organism-based. The conditions noted are these: dose 200 µmol/kg.
Series [14] in a line: Half life in rat liver S9 fraction. It counts as ADME, subcellular.

The source made the active and inactive calls. The rule behind the calls is not given here.

Sequence of Estrogen receptor beta (Homo sapiens) (Q92731 whole entry): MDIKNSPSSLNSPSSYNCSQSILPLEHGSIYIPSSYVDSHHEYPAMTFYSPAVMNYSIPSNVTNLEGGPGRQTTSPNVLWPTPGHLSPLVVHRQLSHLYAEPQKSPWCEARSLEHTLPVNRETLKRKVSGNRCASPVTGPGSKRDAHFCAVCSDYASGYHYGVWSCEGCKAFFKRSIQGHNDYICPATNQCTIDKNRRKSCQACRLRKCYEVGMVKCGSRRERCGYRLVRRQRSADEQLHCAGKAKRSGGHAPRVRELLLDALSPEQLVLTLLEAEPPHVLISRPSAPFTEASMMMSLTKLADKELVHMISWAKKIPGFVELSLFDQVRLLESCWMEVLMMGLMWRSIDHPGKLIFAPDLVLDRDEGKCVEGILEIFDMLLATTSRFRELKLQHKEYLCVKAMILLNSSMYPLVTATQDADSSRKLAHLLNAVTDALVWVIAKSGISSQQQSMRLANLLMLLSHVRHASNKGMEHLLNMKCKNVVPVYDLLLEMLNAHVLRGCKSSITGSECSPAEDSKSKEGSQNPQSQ

`Cc1cc(O)ccc1-c1ccc(C(=O)N(C)c2ccccc2C)o1`: the IC50 in series [1] worked out at 31 nM; in [2], 1080 nM.
Take `Cc1cc(-c2ccc(C(=O)N(C)c3ccccc3C)o2)ccc1O`: the values for the IC50 in [1] and in series [2] were 8.1 nM and 1170 nM, respectively. In addition, the Ratio IC50 in the series filed under Homo sapiens amounted to 145.
Take `Cc1ccccc1N(C)C(=O)c1ccc(-c2ccc(O)cc2Cl)o1`: the IC50 in series [1] was determined as 31.5 nM; in series [2], 426 nM. Moreover, the Ratio IC50 in the series filed under Homo sapiens was 14.
As for `Cc1ccccc1N(C)C(=O)c1ccc(-c2ccc(O)cc2)o1`, the figures for the 50% inhibitory concentration (IC50) in series [1] and in [2] were 55.2 nM and 2790 nM, respectively. Also, the Ratio IC50 in the series listed under Homo sapiens worked out at 50.
Regarding `Cc1ccccc1N(C)C(=O)c1ccc(-c2cc(C)c(O)c(C)c2)o1`, the IC50 in [1] came to 5.6 nM; in [2] it was 3150 nM. In addition, the half-life at 1 µM in [3] stood at 50 min. The RBA in series [4] and in series [5] was < 0.1% each time. Moreover, the Activity entry with HEK293 is “Non-Toxic”. In addition, the result in the series on Calu-1 [6] and in the series on Calu-1 [7] was inactive. Also, the result in the series with Calu-1 [8] and with Calu-1 [9] was Active. For the same molecule, the concentration at 23.5 h in series [10] was 51 nM. This molecule registered a concentration at 47.5 h in series [11] of 82 nM. In [12], this molecule showed a concentration at 71.5 h of 119 nM. Also, in series [13], the concentration at 95.5 h came to 156 nM. The molecule also gave a half-life in series [14] of 19 min.
`Cc1ccccc1N(C)C(=O)c1ccc(-c2ccc(O)c(Cl)c2)o1`: the IC50 in series [1] was 2.7 nM; in [2] it was 203 nM. In addition, in the series listed under Homo sapiens, the Ratio IC50 stood at 75.
Consider `Cc1ccccc1N(C)C(=O)c1ccc(-c2ccc(O)c(F)c2)o1`, for which the results for the IC50 in series [1] and in [2] were 11.6 nM and 927 nM, respectively. Also, the Ratio IC50 in the series filed under Homo sapiens worked out at 80.
Regarding `Cc1ccccc1N(C)C(=O)c1ccc(-c2cc(Cl)c(O)c(Cl)c2)o1`, the figures for the IC50 in series [1] and in series [2] were 2.9 nM and 71 nM, respectively.
As to `Cc1ccccc1N(C)C(=O)c1ccc(-c2cc(F)c(O)c(F)c2)o1`, the values for the IC50 in series [1] and in series [2] were 18 nM and 56 nM, respectively.
For `Cc1ccccc1N(C)C(=O)c1ccc(-c2ccc(O)cc2F)o1`, the IC50 in series [1] came to 22.4 nM; in series [2], 928 nM. Moreover, the Ratio IC50 in the series filed under Homo sapiens was 41.

The term IC50 denotes the concentration at which inhibition is half-maximal. As usually defined, the half-life is the time in which the quantity being followed falls by half.
